Format in all cases: cell-based
Assay [1] deals with human hepatic stellate cells LX-2. As to the kind of experiment: Anti-fibrosis activity test: inhibition of proliferation of human hepatic stellate cells LX-2 (CCK-8). The note with it: Homo sapiens, 48 h, human hepatic stellate cells LX-2, CCK-8, 48 hours. The method, boiled down: (§1)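 A CCK-8 proliferation assay was run: cells at 2×10^4 cells/mL, adherent for 24 h, then incubated 48 h at 37° C with compound dilutions. A450 was recorded 2 h after CCK-8 addition and converted to percent inhibition versus blank for IC50 determination.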

The subject of assay [2] is human embryonic lung fibroblast IMR-90. As to the kind of experiment: Anti-fibrosis activity test: inhibition of proliferation of human embryonic lung fibroblast IMR-90 (CCK-8). The following applies: human embryonic lung fibroblast IMR-90, CCK-8, 48 hours. An outline of the steps:
as §1

In another assay the test system is BHK-21 cells. As to the kind of experiment: Anti-fibrosis activity test: inhibition of BHK-21 cell proliferation (CCK-8). The note with it: Mesocricetus auratus, BHK-21, 48 h, CCK-8, 48 hours after administration. An outline of the steps: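 Proliferation inhibition was read as CCK-8 absorbance at 450 nm (2-hour development) relative to untreated blank, with IC50 fitted from the curve. Before that, adhered cells (2×10^4 cells/mL, 24 hours) had 48 hours' treatment at several concentrations, in triplicate, at 37° C/5% CO2; pirfenidone was the reference.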

Assay [3] deals with human lung fibroblasts HFL1. The assay is described as follows: Anti-fibrosis activity test: inhibition of proliferation of human lung fibroblasts HFL1 (CCK-8). The note with it: Homo sapiens, HFL1, 48 h, human lung fibroblasts HFL1, CCK-8, 48 hours. The method, boiled down:
as §1

In assay [4] the test system is human dermal fibroblasts CCC-ESF-1. The assay is described as follows: Anti-fibrosis activity test: inhibition of proliferation of human dermal fibroblasts CCC-ESF-1 (CCK-8). The note with it: Fibroblast; human dermal fibroblasts CCC-ESF-1, CCK-8, 48 hours. The method, boiled down:
as §1

The test system of assay [5] is cardiac fibroblast RAT-iCell-C002. As to the kind of experiment: Anti-fibrosis activity test: inhibition of proliferation of cardiac fibroblast RAT-iCell-C002 (CCK-8). The note with it: Cardiac fibroblast, 48 h, cardiac fibroblast RAT-iCell-C002, CCK-8, 48 hours. An outline of the steps: as §1
Assay [6] relates to human fibrosarcoma cells HT-1080. As to the kind of experiment: Anti-fibrosis activity test: inhibition of proliferation of human fibrosarcoma cells HT-1080 (CCK-8). The following applies: human fibrosarcoma cells HT-1080, CCK-8, 48 hours. The method, boiled down: as §1
The test system of assay [7] is mouse macrophages (RAW264.7). The assay is described as follows: Lipopolysaccharide-induced NO secretion in macrophages (Griess). The following applies: RAW264.7, LPS 1 μg/ml, a/b isomers given as first/second symbol, read-out: IC50 (μM), inhibition of lipopolysaccharide-induced NO secretion in macrophages. An outline of the steps:
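Absorbance at 548 nm after Griess reagent addition to culture supernatant gave NO content; inhibition rate was derived relative to blank control. Cells were mouse RAW264.7 macrophages exposed to compounds and 1 μg/ml LPS for 24 hours.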

Structures are written as SMILES. Like-named read-outs stand apart in the source and are kept apart here.

The IC50 is the midpoint of a concentration-inhibition curve. In the case of `O=C1c2c(nc3cccc(O)c3c2O)-c2cccn21` [Compound 470b, 8,9-dihydroxy-10H-pyrrolizino[1,2-b]quinolin-10-one], the IC50 (in assay [1]; in assay [2]; in the assay with BHK-21 cells; in assay [3]; in assay [4]; in assay [5]) was 0.05 to 5 mM each time. Also, the IC50 was 0.05 to 5 mM in assay [6] (Homo sapiens, HT-1080, 48 h) and 1 to 10 µM in assay [7] (Mus musculus, RAW264.7, 24 h).
For `O=C1c2c(n(Cc3ccc(Cl)cc3)c3cccc(F)c3c2=O)-c2cccn21` [Compound 471a, 4-(4-Chlorobenzyl)-8-fluoro-9H-pyrrolizino[1,2-b]quinoline-9,10(4H)-dione], the IC50 was less than 0.05 mM in assay [1]; 0.05 to 5 mM in assay [2]; 0.05 to 5 mM in the assay with BHK-21 cells; 0.05 to 5 mM in assay [3]; 0.05 to 5 mM in assay [4]; 0.05 to 5 mM in assay [5]. In addition, the IC50 is 0.05 to 5 mM in assay [6] (Homo sapiens, HT-1080, 48 h) and 0.1 to 1 µM in assay [7] (Mus musculus, RAW264.7, 24 h).
For `O=C1c2c(nc3cccc(F)c3c2OCc2ccc(Cl)cc2)-c2cccn21` [Compound 471b, 9-((4-chlorobenzyl)oxy)-8-fluoro-10H-pyrrolizino[1,2-b]quinolin-10-one], the IC50 (in assay [1]; in assay [2]; in the assay on BHK-21 cells; in assay [3]; in assay [4]; in assay [5]) was 0.05 to 5 mM each time. For the same molecule, the IC50 was in the range of 0.05 to 5 mM in assay [6] (Homo sapiens, HT-1080, 48 h) and 1 to 10 µM in assay [7] (Mus musculus, RAW264.7, 24 h).
On to `O=C1c2c(n(Cc3ccccc3Cl)c3cccc(C(F)(F)F)c3c2=O)-c2cccn21` [Compound 472a, 4-(2-Chlorobenzyl)-8-(trifluoromethyl)-9H-pyrrolizino[1,2-b]quinoline-9,10(4H)-dione], for which the IC50 in assay [1] was 0.05 to 5 mM; in assay [2], 0.05 to 5 mM; in the assay with BHK-21 cells, less than 0.05 mM; in assay [3], 0.05 to 5 mM; in assay [4], 0.05 to 5 mM; in assay [5] it was 0.05 to 5 mM. Moreover, the IC50 in assay [6] (Homo sapiens, HT-1080, 48 h) is 0.05 to 5 mM; in assay [7] (Mus musculus, RAW264.7, 24 h), 1 to 10 µM.
`O=C1c2c(nc3cccc(C(F)(F)F)c3c2OCc2ccccc2Cl)-c2cccn21` [Compound 472b, 9-((2-chlorobenzyl)oxy)-8-(trifluoromethyl)-10H-pyrrolizino[1,2-b]quinolin-10-one]: the half-inhibitory concentration (IC50) (in assay [1]; in assay [2]; with BHK-21 cells; in assay [3]; in assay [4]; in assay [5]) was 0.05 to 5 mM each time. Also, the 50% inhibitory concentration (IC50) is 0.05 to 5 mM in assay [6] (Homo sapiens, HT-1080, 48 h) and 1 to 10 µM in assay [7] (Mus musculus, RAW264.7, 24 h).
For the molecule `O=C1c2c(n(Cc3ccc(F)cc3)c3cccc(Cl)c3c2=O)-c2cccn21` [Compound 474a, 8-Chloro-4-(4-fluorobenzyl)-9H-pyrrolizino[1,2-b]quinoline-9,10(4H)-dione], the IC50 was 0.05 to 5 mM in assay [1]; 0.05 to 5 mM in assay [2]; less than 0.05 mM with BHK-21 cells; 0.05 to 5 mM in assay [3]; 0.05 to 5 mM in assay [4]; 0.05 to 5 mM in assay [5]. For the same molecule, the IC50 fell in the range of 0.05 to 5 mM in assay [6] (Homo sapiens, HT-1080, 48 h) and 1 to 10 µM in assay [7] (Mus musculus, RAW264.7, 24 h).
For the molecule `O=C1c2c(nc3cccc(Cl)c3c2OCc2ccc(F)cc2)-c2cccn21` [Compound 474b, 8-chloro-9-((4-fluorobenzyl)oxy)-10H-pyrrolizino[1,2-b]quinolin-10-one], the IC50 in assay [1] was 0.05 to 5 mM; in assay [2], 0.05 to 5 mM; in the assay on BHK-21 cells, 0.05 to 5 mM; in assay [3] it was 0.05 to 5 mM; in assay [4] it was 0.05 to 5 mM; in assay [5], 5 to 20 mM. In addition, the half-inhibitory concentration (IC50) in assay [6] (Homo sapiens, HT-1080, 48 h) was in the range of 0.05 to 5 mM; in assay [7] (Mus musculus, RAW264.7, 24 h), 1 to 10 µM.
`O=C1c2c(n(Cc3cccc(F)c3)c3cccc(F)c3c2=O)-c2cccn21` [Compound 475a, 8-Fluoro-4-(3-fluorobenzyl)-9H-pyrrolizino[1,2-b]quinoline-9,10(4H)-dione]: the IC50 (in assay [1]; in assay [2]; with BHK-21 cells; in assay [3]; in assay [4]; in assay [5]) was 0.05 to 5 mM each time. The IC50 was in the range of 5 to 20 mM in assay [6] (Homo sapiens, HT-1080, 48 h) and 1 to 10 µM in assay [7] (Mus musculus, RAW264.7, 24 h).
As to `O=C1c2c(nc3cccc(F)c3c2OCc2cccc(F)c2)-c2cccn21` [Compound 475b, 8-fluoro-9-((3-fluorobenzyl)oxy)-10H-pyrrolizino[1,2-b]quinolin-10-one], the IC50 (in assay [1]; in assay [2]; with BHK-21 cells; in assay [3]; in assay [4]; in assay [5]) was 0.05 to 5 mM in each case. In addition, the IC50 in assay [6] (Homo sapiens, HT-1080, 48 h) is less than 0.05 mM; in assay [7] (Mus musculus, RAW264.7, 24 h), 1 to 10 µM.
For the molecule `O=C1c2c(n(Cc3ccccc3F)c3cccc(Cl)c3c2=O)-c2cccn21` [Compound 480a, 8-Chloro-4-(2-fluorobenzyl)-9H-pyrrolizino[1,2-b]quinoline-9,10(4H)-dione], the concentration for half-maximal inhibition (IC50) in assay [1] is 0.05 to 5 mM; in assay [2], 0.05 to 5 mM; in the assay with BHK-21 cells, 0.05 to 5 mM; in assay [3] it was 0.05 to 5 mM; in assay [4], 0.05 to 5 mM; in assay [5], less than 0.05 mM. The IC50 in assay [6] (Homo sapiens, HT-1080, 48 h) was in the range of 0.05 to 5 mM; in assay [7] (Mus musculus, RAW264.7, 24 h), 10 to 50 µM.
Consider `O=C1c2c(nc3cccc(Cl)c3c2OCc2ccccc2F)-c2cccn21` [Compound 480b, 8-chloro-9-((2-fluorobenzyl)oxy)-10H-pyrrolizino[1,2-b]quinolin-10-one], for which the IC50 (in assay [1]; in assay [2]; in the assay on BHK-21 cells; in assay [3]; in assay [4]; in assay [5]) was 0.05 to 5 mM each time. Moreover, the IC50 in assay [6] (Homo sapiens, HT-1080, 48 h) was 0.05 to 5 mM; in assay [7] (Mus musculus, RAW264.7, 24 h), 1 to 10 µM.
In the case of `O=C1c2c(n(Cc3ccc(F)cc3)c3c(Cl)cccc3c2=O)-c2cccn21` [Compound 481a, 5-Chloro-4-(4-fluorobenzyl)-9H-pyrrolizino[1,2-b]quinoline-9,10(4H)-dione], the IC50 in assay [1] was 0.05 to 5 mM; in assay [2], 0.05 to 5 mM; in the assay on BHK-21 cells it was less than 0.05 mM; in assay [3], 0.05 to 5 mM; in assay [4], 0.05 to 5 mM; in assay [5], 0.05 to 5 mM. Also, the IC50 in assay [6] (Homo sapiens, HT-1080, 48 h) lay within 0.05 to 5 mM; in assay [7] (Mus musculus, RAW264.7, 24 h), 10 to 50 µM.
`O=C1c2c(nc3c(Cl)cccc3c2OCc2ccc(F)cc2)-c2cccn21` [Compound 481b, 5-chloro-9-((4-fluorobenzyl)oxy)-10H-pyrrolizino[1,2-b]quinolin-10-one]: the IC50 (in assay [1]; in assay [2]; with BHK-21 cells; in assay [3]; in assay [4]; in assay [5]) was 0.05 to 5 mM in each case. Moreover, the IC50 was in the range of 0.05 to 5 mM in assay [6] (Homo sapiens, HT-1080, 48 h) and 1 to 10 µM in assay [7] (Mus musculus, RAW264.7, 24 h).
Consider `N#Cc1c(N2CCNCC2)ccc2c(=O)c3c(n(Cc4ccc(F)cc4)c12)-c1cccn1C3=O` [Compound 482a, 4-(4-Fluorobenzyl)-9,10-dioxo-6-(piperazin-1-yl)-4,10-dihydro-9H-pyrrolizino[1,2-b]quinoline-5-carbonitrile], for which the IC50 (in assay [1]; in assay [2]; in the assay on BHK-21 cells; in assay [3]; in assay [4]; in assay [5]) was 0.05 to 5 mM throughout. Also, the IC50 in assay [6] lay in the range of 5 to 20 mM; in assay [7] (24 hours) it was 10 to 50 µM.

Values taken from patent US11040028B2, “Penicinotam derivative, preparation method and use thereof” (OCEAN UNIVERSITY OF CHINA, priority 2017, dated 2021).
